In the supplement of paper PMC10307832:

The cell lines below were run with CC1=C(N=C(N=C1N)[C@H](CC(=O)N)NC[C@@H](C(=O)N)N)C(=O)N[C@@H]([C@H](C2=CN=CN2)OC3C(C(C(C(O3)CO)O)O)OC4C(C(C(C(O4)CO)O)OC(=O)N)O)C(=O)N[C@H](C)[C@H]([C@H](C)C(=O)N[C@@H]([C@@H](C)O)C(=O)NCCC5=NC(=CS5)C6=NC(=CS6)C(=O)NCCC[S+](C)C)O [Bleomycin] + COc1cc2c(Oc3ccc(NC(=O)C4(C(=O)Nc5ccc(F)cc5)CC4)cc3F)ccnc2cc1OCCCN1CCOCC1 [Foretinib] (partner 0.25 µM) (assay: relative viability (nuclei count vs DMSO), 5 days (fraction); higher = more cells survive). Settings: first compound 1 µM; main component drawn.
In short: (§1)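 One day after seeding in 1536-well plates, lung cancer cell lines were dosed by pin tool. Dosing was either single-drug or a fixed anchor-drug dose plus five library-drug doses (not always all listed) in √10 steps. After 5 days, nuclei were stained in one fix-and-stain step and counted on 4× images, and relative viability is the nuclei count of treated wells over that of vehicle wells, given as the median of duplicate plates.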

Cell Line	relative viability
NCI-H2087	0.158
PC-14	0.0938
LCLC-103H	0.343
NCI-H596	0.247
NCI-H2228	0.191
EMC-BAC-2	0.247
NCI-H2085	0.396
Calu-6	0.107
HCC-366	0.0636
NCI-H1666	0.398
NCI-H647	0.073
NCI-H2342	0.918
SK-MES-1	0.237
COR-L23	0.144
COR-L 105	0.498
IA-LM	0.241
ChaGo-K-1	0.444
A549	0.0665
SW 900	0.161
NCI-H2009	0.639
NCI-H520	0.537
SW 1573	0.308
NCI-H1299	0.277
NCI-H2023	0.162
NCI-H1563	0.61
SK-LU-1	0.365
NCI-H661	0.357

Each cell line was assayed with CC1=C(N=C(N=C1N)[C@H](CC(=O)N)NC[C@@H](C(=O)N)N)C(=O)N[C@@H]([C@H](C2=CN=CN2)OC3C(C(C(C(O3)CO)O)O)OC4C(C(C(C(O4)CO)O)OC(=O)N)O)C(=O)N[C@H](C)[C@H]([C@H](C)C(=O)N[C@@H]([C@@H](C)O)C(=O)NCCC5=NC(=CS5)C6=NC(=CS6)C(=O)NCCC[S+](C)C)O [Bleomycin] + Cc1cc(Nc2cc(N3CCN(C)CC3)nc(Sc3ccc(NC(=O)C4CC4)cc3)n2)n[nH]1 [Tozasertib] (partner 0.1 µM) in the same assay as above. Settings: first compound 0.01 µM; main component drawn.
In short: as §1

Cell Line	relative viability
NCI-H522	0.538
NCI-H1623	0.393
NCI-H838	0.238
NCI-H1650	0.307
NCI-H1993	0.505
PC-14	0.335
LCLC-103H	0.427
NCI-H596	0.639
NCI-H2228	0.216
EMC-BAC-2	0.2
NCI-H2085	0.758
HCC-366	0.0825
NCI-H1666	0.4
NCI-H647	0.0723
NCI-H2342	0.537
SK-MES-1	0.531
COR-L23	0.169
COR-L 105	0.31
ChaGo-K-1	0.221
HCC-44	0.273
SW 900	0.507
NCI-H1648	0.383
NCI-H2009	0.717
NCI-H520	0.412
SW 1573	0.141
NCI-H2023	0.237
SK-LU-1	0.295
NCI-H661	0.366

Same assay, conditions: first compound 0.03162 µM; main component drawn

Cell Line	relative viability
NCI-H522	0.542
NCI-H1623	0.427
NCI-H838	0.211
NCI-H1650	0.234
NCI-H1993	0.501
NCI-H2087	0.198
PC-14	0.275
LCLC-103H	0.479
NCI-H596	0.583
NCI-H2228	0.248
EMC-BAC-2	0.278
NCI-H2085	0.74
HCC-366	0.11
NCI-H1666	0.462
NCI-H647	0.103
NCI-H2342	0.522
SK-MES-1	0.542
COR-L23	0.156
COR-L 105	0.337
ChaGo-K-1	0.214
HCC-44	0.312
SW 900	0.467
NCI-H2009	0.789
NCI-H520	0.422
SW 1573	0.184
NCI-H2023	0.283
SK-LU-1	0.35
NCI-H661	0.359

Same assay, conditions: first compound 0.1 µM; main component drawn

Cell Line	relative viability
NCI-H522	0.504
NCI-H1623	0.417
NCI-H838	0.178
NCI-H1650	0.213
NCI-H1993	0.551
NCI-H2087	0.186
PC-14	0.145
LCLC-103H	0.476
NCI-H596	0.468
NCI-H2228	0.218
EMC-BAC-2	0.246
NCI-H2085	0.783
HCC-366	0.0755
NCI-H1666	0.458
NCI-H647	0.0701
NCI-H2342	0.493
SK-MES-1	0.35
COR-L23	0.128
COR-L 105	0.33
ChaGo-K-1	0.23
HCC-44	0.302
SW 900	0.341
NCI-H1648	0.401
NCI-H2009	0.701
NCI-H520	0.486
SW 1573	0.17
NCI-H2023	0.222
SK-LU-1	0.363
NCI-H661	0.36

Same assay, conditions: first compound 0.3162 µM; main component drawn

Cell Line	relative viability
NCI-H522	0.418
NCI-H1623	0.301
NCI-H838	0.15
NCI-H1650	0.189
NCI-H1993	0.575
NCI-H2087	0.14
PC-14	0.0771
LCLC-103H	0.279
NCI-H596	0.354
NCI-H2228	0.12
EMC-BAC-2	0.22
NCI-H2085	0.539
HCC-366	0.0502
NCI-H1666	0.391
NCI-H647	0.0484
NCI-H2342	0.432
SK-MES-1	0.15
COR-L23	0.102
COR-L 105	0.325
ChaGo-K-1	0.164
HCC-44	0.19
SW 900	0.208
NCI-H1648	0.405
NCI-H2009	0.424
NCI-H520	0.33
SW 1573	0.129
